Measured values published in ChEMBL document CHEMBL5050844 (2019).
Blank lines part the entries; values can stand above or below the molecule they belong to.

Legend:
[1] = Induction of anti-CD3 antibodies-stimulated human T cell activation at 1 uM assessed fold increase in IL-2 secretion measured by ELISA assay; type: functional, T cell line; note: reference of the scale not given here
[2] = Induction of anti-CD3/CD28 antibodies-stimulated human T cell activation at 4 uM assessed fold increase in CD25 expression measured by ELISA assay; type: functional, T cell line
[3] = Induction of anti-CD3/CD28 antibodies-stimulated human T cell activation at 4 uM assessed fold increase in IL-2 secretion measured by ELISA assay; type: functional, T cell line
[4] = Induction of anti-CD3 antibodies-stimulated human T cell activation at 8 uM assessed fold increase in IL-2 secretion measured by ELISA assay; type: functional, T cell line; note: reference of the scale not given here
[5] = Induction of anti-CD3/CD28 antibodies-stimulated human T cell activation at 0.3 uM assessed fold increase in IL-2 secretion measured by ELISA assay; type: functional, T cell line
[6] = Induction of anti-CD3/CD28 antibodies-stimulated human T cell activation at 1 uM assessed fold increase in IL-2 secretion measured by ELISA assay; type: functional, T cell line
[7] = Induction of anti-CD3 antibodies-stimulated human T cell activation at 8 uM assessed fold increase in CD25 expression measured by ELISA assay; type: functional, T cell line; note: reference of the scale not given here
[8] = target: T1, E3 ubiquitin-protein ligase CBL-B (Homo sapiens, UniProt Q13191); assay: Binding affinity towards N-terminal biotinylated Avi-tagged human CBL-B (36 to 427 residues) measured by surface plasmon resonance assay
T1 sequence (Q13191 whole entry, the tested form may be a part): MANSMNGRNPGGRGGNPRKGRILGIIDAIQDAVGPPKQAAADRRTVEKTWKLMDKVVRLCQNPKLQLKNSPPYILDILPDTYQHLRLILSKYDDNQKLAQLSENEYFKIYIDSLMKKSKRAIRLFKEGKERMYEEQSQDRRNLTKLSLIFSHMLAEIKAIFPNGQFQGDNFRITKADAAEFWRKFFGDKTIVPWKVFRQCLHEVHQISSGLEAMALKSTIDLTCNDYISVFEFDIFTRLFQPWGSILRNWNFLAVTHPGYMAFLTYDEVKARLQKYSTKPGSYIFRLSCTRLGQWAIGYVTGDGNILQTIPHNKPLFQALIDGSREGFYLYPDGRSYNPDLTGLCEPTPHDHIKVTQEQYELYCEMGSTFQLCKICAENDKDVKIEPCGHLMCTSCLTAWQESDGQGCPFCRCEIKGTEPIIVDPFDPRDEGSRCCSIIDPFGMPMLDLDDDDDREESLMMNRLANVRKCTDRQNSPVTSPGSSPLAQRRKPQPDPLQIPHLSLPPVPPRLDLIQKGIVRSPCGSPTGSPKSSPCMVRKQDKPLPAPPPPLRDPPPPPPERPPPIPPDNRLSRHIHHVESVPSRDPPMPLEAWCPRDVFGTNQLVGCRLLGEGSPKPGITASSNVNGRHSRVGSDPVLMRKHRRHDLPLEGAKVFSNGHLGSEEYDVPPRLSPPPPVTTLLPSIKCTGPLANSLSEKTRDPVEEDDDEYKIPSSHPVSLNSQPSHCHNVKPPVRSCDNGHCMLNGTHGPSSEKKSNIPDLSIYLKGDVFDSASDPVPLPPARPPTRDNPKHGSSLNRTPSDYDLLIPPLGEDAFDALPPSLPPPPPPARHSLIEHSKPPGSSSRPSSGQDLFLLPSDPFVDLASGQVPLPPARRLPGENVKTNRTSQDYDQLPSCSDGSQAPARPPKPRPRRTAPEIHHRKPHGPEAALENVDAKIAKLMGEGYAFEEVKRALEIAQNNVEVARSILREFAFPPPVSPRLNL

[9] = Induction of anti-CD3/CD28 antibodies-stimulated human T cell activation at 0.3 uM assessed fold increase in CD25 expression measured by ELISA assay; type: functional, T cell line
[10] = Induction of anti-CD3 antibodies-stimulated human T cell activation at 1 uM assessed fold increase in CD25 expression measured by ELISA assay; type: functional, T cell line; note: reference of the scale not given here
[11] = target: T1, E3 ubiquitin-protein ligase CBL-B; assay: Inhibition of N-terminal Avi-tagged human CBL-B (36 to 427 residues) incubated with 60 nM Src kinase for 1.5 hrs followed by incubation with fluorescently labeled UbcH5B-Ub for 1 hr and measured by TR-FRET assay; type: single protein
[12] = Induction of anti-CD3/CD28 antibodies-stimulated human T cell activation at 1 uM assessed fold increase in CD25 expression measured by ELISA assay; type: functional, T cell line

Kd [8]: < 100 nM
IC50 [11]: < 100 nM
Compound: CCNc1cc([C@H](C)Cc2nncn2C)cc(N2Cc3c(cccc3C(F)(F)F)C2=O)n1
fold change (FC) [1]: >=0.201
fold change (FC) [2]: 1.51
fold change (FC) [3]: >=7.5
fold change (FC) [4]: >=0.201
fold change (FC) [5]: 2.51
fold change (FC) [6]: >=7.5
fold change (FC) [7]: >=1.001
fold change (FC) [9]: 1.31
fold change (FC) [10]: >=1.001
fold change (FC) [12]: 1.51

Kd [8]: < 100 nM
IC50 [11]: < 100 nM
Compound: Cn1cnnc1CC(C)(C)c1cccc(N2Cc3c(cc(C4CC4)cc3C(F)(F)F)C2=O)c1
fold change (FC) [1]: 0.101
fold change (FC) [2]: 1.31
fold change (FC) [3]: 5
fold change (FC) [4]: >=0.201
fold change (FC) [5]: 1.01
fold change (FC) [6]: 2.51
fold change (FC) [7]: >=1.001
fold change (FC) [9]: 1.01
fold change (FC) [10]: 0.801
fold change (FC) [12]: 1.01

Kd [8]: < 100 nM
IC50 [11]: < 100 nM
Compound: C[C@H](CC1=NN=CC1C(F)(F)F)c1cccc(N2Cc3c(cc(C(=O)N4CC[C@H](O)C4)cc3C(F)(F)F)C2=O)c1 (stereo partly specified)
fold change (FC) [1]: 0.051
fold change (FC) [2]: 1.01
fold change (FC) [3]: 2.51
fold change (FC) [4]: 0.151
fold change (FC) [5]: 1.01
fold change (FC) [6]: 1.01
fold change (FC) [7]: >=1.001
fold change (FC) [9]: 1.01
fold change (FC) [10]: 0.801
fold change (FC) [12]: 1.01

Kd [8]: < 100 nM
IC50 [11]: < 100 nM
Compound: C[C@H](Cc1nncn1C)c1cccc(N2Cc3c(cc(CN4CC[C@@H](F)C4)cc3C(F)(F)F)C2=O)c1
fold change (FC) [1]: >=0.201
fold change (FC) [2]: 1.31
fold change (FC) [3]: >=7.5
fold change (FC) [4]: >=0.201
fold change (FC) [5]: 5
fold change (FC) [6]: >=7.5
fold change (FC) [7]: >=1.001
fold change (FC) [9]: 1.01
fold change (FC) [10]: >=1.001
fold change (FC) [12]: 1.01

Kd [8]: < 100 nM
IC50 [11]: < 100 nM
Compound: CNc1cc([C@H](C)Cc2nncn2C)cc(N2Cc3c(cccc3C(F)(F)F)C2=O)n1
fold change (FC) [1]: 0.051
fold change (FC) [2]: 1.31
fold change (FC) [3]: 5
fold change (FC) [4]: 0.151
fold change (FC) [5]: 1.01
fold change (FC) [6]: 1.01
fold change (FC) [7]: >=1.001
fold change (FC) [9]: 1.01
fold change (FC) [10]: 0.601
fold change (FC) [12]: 1.01

Kd [8]: < 100 nM
IC50 [11]: < 100 nM
Compound: Cc1conc1C[C@@H](C)c1cccc(N2Cc3c(cc(C(=O)N4CC[C@H](O)C4)cc3C(F)(F)F)C2=O)c1
fold change (FC) [1]: 0.101
fold change (FC) [2]: 1.01
fold change (FC) [3]: >=7.5
fold change (FC) [4]: >=0.201
fold change (FC) [5]: 2.51
fold change (FC) [6]: 5
fold change (FC) [7]: >=1.001
fold change (FC) [9]: 1.01
fold change (FC) [10]: >=1.001
fold change (FC) [12]: 1.01

Kd [8]: < 100 nM
IC50 [11]: < 100 nM
Compound: C[C@H](Cc1nncn1C)c1cccc(N2Cc3c(cc(CN4CC(F)C4)cc3C(F)(F)F)C2=O)c1
fold change (FC) [1]: 0.151
fold change (FC) [2]: 1.31
fold change (FC) [3]: >=7.5
fold change (FC) [4]: >=0.201
fold change (FC) [5]: 2.51
fold change (FC) [6]: >=7.5
fold change (FC) [7]: >=1.001
fold change (FC) [9]: 1.01
fold change (FC) [10]: >=1.001
fold change (FC) [12]: 1.01

Kd [8]: < 100 nM
IC50 [11]: < 100 nM
Compound: Cn1cnnc1C(F)(F)[C@](C)(F)c1cccc(N2Cc3c(cc(CN4CC[C@H](S(C)(=O)=O)C4)cc3C(F)(F)F)C2=O)c1
fold change (FC) [1]: 0.101
fold change (FC) [2]: 1.01
fold change (FC) [3]: >=7.5
fold change (FC) [4]: >=0.201
fold change (FC) [5]: 2.51
fold change (FC) [6]: 2.51
fold change (FC) [7]: >=1.001
fold change (FC) [9]: 1.01
fold change (FC) [10]: 0.801
fold change (FC) [12]: 1.01

Kd [8]: < 100 nM
IC50 [11]: < 100 nM
Compound: CC(O)c1cc2c(c(C(F)(F)F)c1)CN(c1cccc([C@H](C)Cc3nncn3C)c1)C2=O (stereo partly specified)
fold change (FC) [1]: 0.151
fold change (FC) [2]: 1.31
fold change (FC) [3]: >=7.5
fold change (FC) [4]: >=0.201
fold change (FC) [5]: 2.51
fold change (FC) [6]: 5
fold change (FC) [7]: >=1.001
fold change (FC) [9]: 1.01
fold change (FC) [10]: 0.801
fold change (FC) [12]: 1.31

Kd [8]: < 100 nM
IC50 [11]: < 100 nM
Compound: C[C@H](Cc1nncn1C)c1cccc(N2Cc3c(cc(-n4cccn4)cc3C(F)(F)F)C2=O)c1
fold change (FC) [1]: >=0.201
fold change (FC) [2]: 1.51
fold change (FC) [3]: >=7.5
fold change (FC) [4]: >=0.201
fold change (FC) [5]: 2.51
fold change (FC) [6]: >=7.5
fold change (FC) [7]: >=1.001
fold change (FC) [9]: 1.31
fold change (FC) [10]: >=1.001
fold change (FC) [12]: 1.51

Kd [8]: < 100 nM
IC50 [11]: < 100 nM
Compound: C[C@H](Cc1nncn1C)c1cccc(N2Cc3c(cc(CO)cc3C(F)(F)F)C2=O)c1
fold change (FC) [1]: 0.151
fold change (FC) [2]: 1.31
fold change (FC) [3]: >=7.5
fold change (FC) [4]: >=0.201
fold change (FC) [5]: 2.51
fold change (FC) [6]: 5
fold change (FC) [7]: >=1.001
fold change (FC) [9]: 1.01
fold change (FC) [10]: >=1.001
fold change (FC) [12]: 1.01

Kd [8]: < 100 nM
IC50 [11]: < 100 nM
Compound: C[C@@H]1[C@@H](c2nncn2C)[C@H]1c1cccc(N2Cc3c(cccc3C(F)(F)F)C2=O)c1
fold change (FC) [1]: 0.101
fold change (FC) [2]: 1.31
fold change (FC) [3]: 5
fold change (FC) [4]: >=0.201
fold change (FC) [5]: >=7.5
fold change (FC) [6]: 2.51
fold change (FC) [7]: >=1.001
fold change (FC) [9]: >=1.76
fold change (FC) [10]: >=1.001
fold change (FC) [12]: 1.01

Kd [8]: < 100 nM
IC50 [11]: < 100 nM
Compound: C[C@H](Cc1nncn1C)c1cccc(N2Cc3c(cc([C@@H](C)N4CC[C@H](F)C4)cc3C(F)(F)F)C2=O)c1
fold change (FC) [1]: 0.151
fold change (FC) [2]: 1.31
fold change (FC) [3]: >=7.5
fold change (FC) [4]: >=0.201
fold change (FC) [5]: 5
fold change (FC) [6]: >=7.5
fold change (FC) [7]: >=1.001
fold change (FC) [9]: 1.01
fold change (FC) [10]: >=1.001
fold change (FC) [12]: 1.01

Kd [8]: < 100 nM
IC50 [11]: < 100 nM
Compound: C[C@H](Cc1nncn1C)c1cccc(NC(=O)c2ccc(CO)c(C3CC3)n2)c1
fold change (FC) [1]: >=0.201
fold change (FC) [2]: 1.51
fold change (FC) [3]: >=7.5
fold change (FC) [4]: >=0.201
fold change (FC) [5]: >=7.5
fold change (FC) [6]: >=7.5
fold change (FC) [7]: >=1.001
fold change (FC) [9]: 1.31
fold change (FC) [10]: >=1.001
fold change (FC) [12]: 1.51

Kd [8]: < 100 nM
IC50 [11]: < 100 nM
Compound: CC(c1cc2c(c(C(F)(F)F)c1)CN(c1cccc([C@H](C)Cc3nncn3C)c1)C2=O)N1CC[C@H](O)C1 (stereo partly specified)
fold change (FC) [1]: 0.151
fold change (FC) [2]: 1.51
fold change (FC) [3]: >=7.5
fold change (FC) [4]: >=0.201
fold change (FC) [5]: 2.51
fold change (FC) [6]: >=7.5
fold change (FC) [7]: >=1.001
fold change (FC) [9]: 1.31
fold change (FC) [10]: >=1.001
fold change (FC) [12]: 1.31

Kd [8]: < 100 nM
IC50 [11]: < 100 nM
Compound: C[C@H](Cc1nncn1C)c1cccc(NC(=O)c2cc(C3CC3)nc(C3CC3)n2)c1
fold change (FC) [1]: >=0.201
fold change (FC) [2]: 1.51
fold change (FC) [3]: >=7.5
fold change (FC) [4]: >=0.201
fold change (FC) [5]: 2.51
fold change (FC) [6]: 5
fold change (FC) [7]: >=1.001
fold change (FC) [9]: 1.01
fold change (FC) [10]: >=1.001
fold change (FC) [12]: 1.51

Kd [8]: < 100 nM
IC50 [11]: < 100 nM
Compound: C[C@H](Cc1nncn1C)c1cccc(N2Cc3c(cc(CN4CCC(F)(F)C4)cc3C(F)(F)F)C2=O)c1
fold change (FC) [1]: 0.151
fold change (FC) [2]: 1.31
fold change (FC) [3]: >=7.5
fold change (FC) [4]: >=0.201
fold change (FC) [5]: 2.51
fold change (FC) [6]: 5
fold change (FC) [7]: >=1.001
fold change (FC) [9]: 1.01
fold change (FC) [10]: >=1.001
fold change (FC) [12]: 1.01

Kd [8]: < 100 nM
IC50 [11]: < 100 nM
Compound: C[C@H](Cc1nncn1C)c1cccc(N2Cc3c(cc(C(=O)N4CC[C@H](O)C4)cc3C(F)(F)F)C2=O)c1
fold change (FC) [1]: 0.151
fold change (FC) [2]: 1.31
fold change (FC) [3]: >=7.5
fold change (FC) [4]: >=0.201
fold change (FC) [5]: 1.01
fold change (FC) [6]: 2.51
fold change (FC) [7]: >=1.001
fold change (FC) [9]: 1.01
fold change (FC) [10]: 0.801
fold change (FC) [12]: 1.01
